Laboratory results from patent US20090099140A1, “20-Alkyl, Gemini Vitamin D3 Compounds and Methods of Use Thereof” (BioXell S.p.A., priority 2005, published 2009).
Where two headings read alike, the source gives them in different places.

Experiments:
[1] = Determination of maximum tolerated dose (MTD), highest oral dose without hypercalcemia (serum calcium); format: in vivo; settings: in vivo, po
Procedure: The maximum tolerated dose of the vitamin D3 compounds of the invention were determined in eight week-old female C57BL/6 mice (3 mice/group) dosed orally (0.1 ml/mouse) with various concentrations of Vitamin D3 analogs daily for four days. Analogs were formulated in miglyol for a final concentration of 10, 30, 100 and 300 μg/kg when given at 0.1 ml/mouse p.o. daily. Blood for serum calcium assay was drawn by tail bleed on day five, the final day of the study. Serum calcium levels were determined using a colorimetric assay (Sigma Diagnostics, procedure no. 597). The highest dose of analog tolerated without inducing hypercalcemia (serum calcium >10.7 mg/dl) was taken as the maximum tolerated does (MTD).

IFN-γ production = IFN-γ production by allogeneic T cell activation in the mixed leukocyte response (MLR); format: cell-based; settings: MLR of allogeneic PBMC from 2 different donors, 5 days, IFN-γ by ELISA, 50% inhibition of IFN-γ production
Procedure: Immature dendritic cells (DC) were prepared as described in Romani, N. et al., J. Immunol. Meth. 196:137. IFN-γ production by allogeneic T cell activation in the mixed leukocyte response (MLR) was determined as described in Penna, G., et al., J. Immunol., 164: 2405-2411 (2000).
Briefly, peripheral blood mononuclear cells (PBMC) were separated from buffy coats by Ficoll gradient and the same number (3×105) of allogeneic PBMC from 2 different donors were co-cultured in 96-well flat-bottom plates. After 5 days, IFN-γ production in the MLR assay was measured by ELISA and the results expressed as amount (nM) of test compound required to induce 50% inhibition of IFN-γ production (IC50) (Table 1).

[2] = mouse, eight week-old female C57BL/6 mice, p.o. daily for four days in miglyol, highest dose without hypercalcemia (serum calcium >10.7 mg/dl) on day five, read-out: MTD (mice)

| Molecule | MTD at 4 days [1, 2] [µg/kg] | IC50 (IFN-γ production; 120 h) [nM] | also measured |
| --- | --- | --- | --- |
| C=C1/C(=C\C=C2/CCC[C@@]3(C)C2CC[C@@H]3C(C)(CCCC(C)(C)O)CCCC(C)(C)O)CC(O)C[C@@H]1O (some centres unmarked) [Compound 1, 1,25-Dihydroxy-20-(4-hydroxy-4-methyl-pentyl)cholecalciferol] | 3 | 0.518 | – |
| CC(C)(O)CCCC(C)(CCCC(C)(C)O)[C@H]1CCC2/C(=C/C=C3/CC(O)C[C@H](O)C3)CCC[C@@]21C (some centres unmarked) [Compound 2, 1,25-Dihydroxy-20-(4-hydroxy-4-methyl-pentyl)-19-nor-cholecalciferol] | < 30 | 0.744 | – |
| C=C1/C(=C\C=C2/CCC[C@@]3(C)C2CC[C@@H]3C(C)(CCCC(C)(C)O)CCCC(C)(C)O)CC(O)C[C@@H]1F (stereo partly drawn) [Compound 3, 1α-Fluoro-25-hydroxy-20-(4-hydroxy-4-methyl-pentyl)-cholecalciferol] | – | 6.27 | MTD at 4 days ([1]; female, C57BL/6, mouse): > 300 µg/kg |
| C=C1/C(=C\C=C2/CCC[C@@]3(C)C2CC[C@@H]3[C@](C)(CC#CC(O)(C(F)(F)F)C(F)(F)F)CCCC(C)(C)O)CC(O)C[C@@H]1O (stereo partly drawn) [Compound 4, (20S)-1,25-Dihydroxy-20-(5,5,5-trifluoro-4-hydroxy-4-trifluoromethyl-pent-2-ynyl)cholecalciferol] | 0.3 | 0.049 | – |
| C=C1/C(=C\C=C2/CCC[C@@]3(C)C2CC[C@@H]3[C@](C)(C/C=C\C(O)(C(F)(F)F)C(F)(F)F)CCCC(C)(C)O)CC(O)C[C@@H]1O (stereo partly drawn) [Compound 5, (20S)-1,25-Dihydroxy-20-(5,5,5-trifluoro-4-hydroxy-4-trifluoromethyl-pent-(2Z)-enyl)cholecalciferol] | 0.3 | 0.042 | – |
| C=C1/C(=C\C=C2/CCC[C@@]3(C)C2CC[C@@H]3[C@@](C)(CC#CC(O)(C(F)(F)F)C(F)(F)F)CCCC(C)(C)O)C[C@@H](O)C[C@@H]1O (stereo partly drawn) [Compound 7, (20R)-1,25-Dihydroxy-20-(5,5,5-trifluoro-4-hydroxy-4-trifluoromethyl-pent-2-ynyl)-cholecalciferol] | – | 0.038 | – |
| C=C1/C(=C\C=C2/CCC[C@@]3(C)C2CC[C@@H]3[C@@](C)(C/C=C\C(O)(C(F)(F)F)C(F)(F)F)CCCC(C)(C)O)C[C@@H](O)C[C@@H]1O (stereo partly drawn) [Compound 8, (20R)-1,25-Dihydroxy-20-[(2Z)-5,5,5-trifluoro-4-hydroxy-4-trifluoromethyl-pent-2-enyl]-cholecalciferol] | 0.3 | 0.057 | – |
| C=C1/C(=C\C=C2/CCC[C@@]3(C)C2CC[C@@H]3[C@@](C)(C/C=C/C(O)(C(F)(F)F)C(F)(F)F)CCCC(C)(C)O)C[C@@H](O)C[C@@H]1O (stereo partly drawn) [Compound 9, (20R)-1,25-Dihydroxy-20-[(2E)-5,5,5-trifluoro-4-hydroxy-4-trifluoromethyl-pent-2-enyl]-cholecalciferol] | 0.1 | 0.049 | – |
| CC(C)(O)CCC[C@@](C)(CC#CC(O)(C(F)(F)F)C(F)(F)F)[C@H]1CCC2/C(=C/C=C3/CC(O)C[C@H](O)C3)CCC[C@@]21C (stereo partly drawn) [Compound 10, (20S)-1,25-Dihydroxy-20-(5,5,5-trifluoro-4-hydroxy-4-trifluoromethyl-pent-2-ynyl)-19-nor-cholecalciferol] | 0.3 | 0.0436 | – |
| CC(C)(O)CCC[C@@](C)(C/C=C\C(O)(C(F)(F)F)C(F)(F)F)[C@H]1CCC2/C(=C/C=C3/CC(O)C[C@H](O)C3)CCC[C@@]21C (stereo partly drawn) [Compound 11, (20S)-1,25-Dihydroxy-20-[(2Z)-5,5,5-trifluoro-4-hydroxy-4-trifluoromethyl-pent-2-enyl]-19-nor-cholecalciferol] | 3 | 0.253 | – |
| [2H]C([2H])([2H])C(O)(CCCC(C)(C/C=C/C(O)(C(F)(F)F)C(F)(F)F)[C@H]1CCC2/C(=C/C=C3/C[C@@H](O)C[C@H](O)C3=C)CCC[C@@]21C)C([2H])([2H])[2H] (stereo partly drawn) [Compound 19, 1,25-Dihydroxy-20S-20-(4-hydroxy-5,5,5-trideutero-4-trideuteromethyl-pentyl)-23E-ene-26,27-hexafluorocholecalciferol] | 0.1 | – | – |
| [2H]C([2H])([2H])C(O)(CCCC(C)(C/C=C/C(O)(C(F)(F)F)C(F)(F)F)[C@H]1CCC2/C(=C/C=C3C[C@@H](O)C[C@H](O)C3)CCC[C@@]21C)C([2H])([2H])[2H] (stereo partly drawn) [Compound 20, 1,25-Dihydroxy-20S-20-(4-hydroxy-5,5,5-trideutero-4-trideuteromethyl-pentyl)-23E-ene-26,27-hexafluoro-19-nor-cholecalciferol] | 0.1 | – | – |
| [2H]C([2H])([2H])C(O)(CCCC(C)(CC#CC(O)(C(F)(F)F)C(F)(F)F)[C@H]1CCC2/C(=C/C=C3/C[C@@H](O)C[C@H](O)C3=C)CCC[C@@]21C)C([2H])([2H])[2H] (stereo partly drawn) [Compound 22, 1,25-Dihydroxy-20S-20-(4-hydroxy-5,5,5-trideutero-4-trideuteromethyl-pentyl)-23-yne-26,27-hexafluorocholecalciferol] | 0.3 | – | – |
| [2H]C([2H])([2H])C(O)(CCCC(C)(CC#CC(O)(C(F)(F)F)C(F)(F)F)[C@H]1CCC2/C(=C/C=C3C[C@@H](O)C[C@H](O)C3)CCC[C@@]21C)C([2H])([2H])[2H] (stereo partly drawn) [Compound 23, 1,25-Dihydroxy-20S-20-(4-hydroxy-5,5,5-trideutero-4-trideuteromethyl-pentyl)-23-yne-26,27-hexafluoro-19-nor-cholecalciferol] | 1 | – | – |
| [2H]C([2H])([2H])C(O)(CCC[C@](C)(C/C=C\C(O)(C(F)(F)F)C(F)(F)F)[C@H]1CCC2/C(=C/C=C3C[C@@H](O)C[C@H](O)C3)CCC[C@@]21C)C([2H])([2H])[2H] (stereo partly drawn) [Compound 26, 1,25-Dihydroxy-20R-20-(4-hydroxy-5,5,5-trideutero-4-trideuteromethyl-pentyl)-23Z-ene-26,27-hexafluoro-19-nor-cholecalciferol] | 0.3 | – | – |
| [2H]C([2H])([2H])C(O)(CCC[C@](C)(C/C=C\C(O)(C(F)(F)F)C(F)(F)F)[C@H]1CCC2/C(=C/C=C3/C[C@@H](O)C[C@H](F)C3=C)CCC[C@@]21C)C([2H])([2H])[2H] (stereo partly drawn) [Compound 27, 1α-Fluoro-25-hydroxy-20R-20-(4-hydroxy-5,5,5-trideutero-4-trideuteromethyl-pentyl)-23Z-ene-26,27-hexafluorocholecalciferol] | – | 0.307 | – |
| [2H]C([2H])([2H])C(O)(CCC[C@](C)(C/C=C/C(O)(C(F)(F)F)C(F)(F)F)[C@H]1CCC2/C(=C/C=C3/C[C@@H](O)C[C@H](O)C3=C)CCC[C@@]21C)C([2H])([2H])[2H] (stereo partly drawn) [Compound 28, 1,25-Dihydroxy-20R-20-(4-hydroxy-5,5,5-trideutero-4-trideuteromethyl-pentyl)-23E-ene-26,27-hexafluorocholecalciferol] | 0.3 | – | – |
| [2H]C([2H])([2H])C(O)(CCC[C@](C)(C/C=C/C(O)(C(F)(F)F)C(F)(F)F)[C@H]1CCC2/C(=C/C=C3C[C@@H](O)C[C@H](O)C3)CCC[C@@]21C)C([2H])([2H])[2H] (stereo partly drawn) [Compound 29, 1,25-Dihydroxy-20R-20-(4-hydroxy-5,5,5-trideutero-4-trideuteromethyl-pentyl)-23E-ene-26,27-hexafluoro-19-nor-cholecalciferol] | 0.1 | – | – |
| [2H]C([2H])([2H])C(O)(CCC[C@](C)(C/C=C/C(O)(C(F)(F)F)C(F)(F)F)[C@H]1CCC2/C(=C/C=C3/C[C@@H](O)C[C@H](F)C3=C)CCC[C@@]21C)C([2H])([2H])[2H] (stereo partly drawn) [Compound 30, 1α-Fluoro-25-hydroxy-20R-20-(4-hydroxy-5,5,5-trideutero-4-trideuteromethyl-pentyl)-23E-ene-26,27-hexafluorocholecalciferol] | – | 0.012 | – |
| [2H]C([2H])([2H])C(O)(CCC[C@](C)(CC#CC(O)(C(F)(F)F)C(F)(F)F)[C@H]1CCC2/C(=C/C=C3/C[C@@H](O)C[C@H](O)C3=C)CCC[C@@]21C)C([2H])([2H])[2H] (stereo partly drawn) [Compound 31, 1,25-Dihydroxy-20R-20-(4-hydroxy-5,5,5-trideutero-4-trideuteromethyl-pentyl)-23-yne-26,27-hexafluorocholecalciferol] | 0.3 | – | – |
| [2H]C([2H])([2H])C(O)(CCC[C@](C)(CC#CC(O)(C(F)(F)F)C(F)(F)F)[C@H]1CCC2/C(=C/C=C3C[C@@H](O)C[C@H](O)C3)CCC[C@@]21C)C([2H])([2H])[2H] (stereo partly drawn) [Compound 32, 1,25-Dihydroxy-20R-20-(4-hydroxy-5,5,5-trideutero-4-trideuteromethyl-pentyl)-23-yne-26,27-hexafluoro-19-nor-cholecalciferol] | 0.3 | – | – |
| [2H]C([2H])([2H])C(O)(CCC[C@](C)(CC#CC(O)(C(F)(F)F)C(F)(F)F)[C@H]1CCC2/C(=C/C=C3/C[C@@H](O)C[C@H](F)C3=C)CCC[C@@]21C)C([2H])([2H])[2H] (stereo partly drawn) [Compound 33, 1α-Fluoro-25-hydroxy-20R-20-(4-hydroxy-5,5,5-trideutero-4-trideuteromethyl-pentyl)-23-yne-26,27-hexafluorocholecalciferol] | – | 0.0132 | – |
| (20S)-1,25-Dihydroxy-20-[(2E)-5,5,5-trifluoro-4-hydroxy-4-trifluoromethyl-pent-2-enyl]-cholecalciferol [Compound 6] | – | – | IC50 (IFN-γ production): 0.044 nM |
